Experimental data as given in patent publication US20080261895A1 (Wyeth, priority 2006, published 2008).

Assays:
D2 = D2 (Homo sapiens, UniProt P14416); conditions: cited from earlier work
s Cholinergic = conditions: cited from earlier work
[1] = Metabolites of DVS observed by LC/MS in dog plasma, urine and feces; assay type: in vivo, beagle dogs; conditions: P: plasma, U: urine, F: feces
Experimental: An Agilent Model 1100 HPLC system (Agilent Technologies, Wilmington, Del.) including an autosampler and diode array UV detector was used for LC/MS analysis. The UV detector was set to monitor 200 to 400 nm. Separations were accomplished on a 5 micron Phenomenex Luna C18(2) column, 150×2 mm (Phenomenex). The column temperature was 25° C. For selected LC/MS analyses, radiochromatograms were acquired using a β-RAM model 3 radioactivity flow detector (IN/US Systems Inc., Tampa, Fla.) equipped with a solid scintillation flow cell.
The mass spectrometers used for metabolite characterization were a Micromass Q-TOF-2 quadrupole time-of-flight hybrid mass spectrometer (Micromass, Inc., Beverly, Mass.) and a Finnigan LCQ Deca ion trap mass spectrometer (ThermoFinnigan, San Jose, Calif.). The mass spectrometer was equipped with an electrospray ionization (ESI) interface and operated in the positive ionization mode.

[2] = Metabolites of DVS observed by LC/MS in rat plasma, urine and feces; assay type: in vivo, Sprague Dawley rats; conditions: P: plasma, U: urine, F: feces
Experimental: An Agilent Model 1100 HPLC system (Agilent Technologies, Wilmington, Del.) including an autosampler and diode array UV detector was used for LC/MS analysis. The UV detector was set to monitor 200 to 400 nm. Separations were accomplished on a 5 micron Phenomenex Luna C18(2) column, 150×2 mm (Phenomenex). The column temperature was 25° C. The mobile phases and gradient program were as follows.
The mass spectrometer used for metabolite characterization was a Micromass Q-TOF-2 quadrupole time-of-flight hybrid mass spectrometer (Micromass, Inc., Beverly, Mass.). The mass spectrometer was equipped with an electrospray ionization (ESI) interface and operated in the positive ionization mode.

[3] = tested on: Reserpine-Induce Hypothermia; conditions: cited from earlier work
Histamine Hi = Histamine Hi (Homo sapiens, UniProt P35367); conditions: cited from earlier work
Opiate = conditions: cited from earlier work
Adrenergic a = conditions: cited from earlier work
dog liver microsomes = assay: Glucuronidation in dog liver microsomes; assay type: in vitro ADME; conditions: dog liver microsomes 1 mg/mL, 100 μM, 30 minutes
Experimental: To confirm the site of glucuronidation of DVS, incubations were performed using dog liver microsomes. These incubations compared the glucuronidation of DVS to venlafaxine. […] Reactions were initiated by the addition of UDPGA (final concentration 1 mM). An additional set of incubations was performed for venlafaxine with UDPGA and an NADPH generating system. […] Reactions were stopped by the addition of 500 μL of acetonitrile and processed as described above. Samples were analyzed by LC/MS.

adrenergic receptors = conditions: in vitro; cited from earlier work
monoamine oxidase = conditions: cited from earlier work
histaminergic receptors = conditions: in vitro; cited from earlier work

Histamine Hi, sequence (P35367 whole entry): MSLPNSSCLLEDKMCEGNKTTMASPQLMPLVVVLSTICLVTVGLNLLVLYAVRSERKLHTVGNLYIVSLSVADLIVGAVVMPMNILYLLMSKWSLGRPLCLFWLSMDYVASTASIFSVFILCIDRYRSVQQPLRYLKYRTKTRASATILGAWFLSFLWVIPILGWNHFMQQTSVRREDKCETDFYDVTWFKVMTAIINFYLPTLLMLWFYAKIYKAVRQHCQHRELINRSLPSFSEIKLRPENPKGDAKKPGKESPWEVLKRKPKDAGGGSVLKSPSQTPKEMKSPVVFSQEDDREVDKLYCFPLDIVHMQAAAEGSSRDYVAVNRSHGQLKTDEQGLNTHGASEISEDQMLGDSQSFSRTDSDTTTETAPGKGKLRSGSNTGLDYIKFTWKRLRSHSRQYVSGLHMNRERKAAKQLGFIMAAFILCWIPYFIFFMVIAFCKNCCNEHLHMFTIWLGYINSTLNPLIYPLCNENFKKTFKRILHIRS
D2, sequence (P14416 whole entry): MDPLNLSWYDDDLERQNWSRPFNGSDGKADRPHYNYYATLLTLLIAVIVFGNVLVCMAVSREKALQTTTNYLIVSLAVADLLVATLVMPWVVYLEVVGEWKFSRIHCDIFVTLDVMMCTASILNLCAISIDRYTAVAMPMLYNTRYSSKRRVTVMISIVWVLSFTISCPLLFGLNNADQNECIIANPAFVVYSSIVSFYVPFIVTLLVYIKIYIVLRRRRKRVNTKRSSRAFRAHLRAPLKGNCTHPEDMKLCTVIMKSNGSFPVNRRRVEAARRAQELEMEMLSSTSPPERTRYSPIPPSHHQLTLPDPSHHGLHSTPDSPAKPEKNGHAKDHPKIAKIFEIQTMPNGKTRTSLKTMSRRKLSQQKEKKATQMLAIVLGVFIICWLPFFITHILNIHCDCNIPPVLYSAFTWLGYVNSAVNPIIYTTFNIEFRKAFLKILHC

Matrix (metabolite observed by LC/MS) [1]	Matrix (metabolite observed by LC/MS) [2]	Compound	Affinity for Various Neuroreceptors (% inhibition at 1 uM): D2 (D2) [%]	Affinity for Various Neuroreceptors (% inhibition at 1 uM): s Cholinergic (s Cholinergic) [%]	Reversal of Reserpine-Induce Hypothermia (minimum effect; mg&g i.p.) [3] [mg&g]	Affinity for Various Neuroreceptors (% inhibition at 1 uM): Histamine Hi (Histamine Hi) [%]	Affinity for Various Neuroreceptors (% inhibition at 1 uM): Opiate (Opiate) [%]	Affinity for Various Neuroreceptors (% inhibition at 1 uM): Adrenergic a (Adrenergic a) [%]	glucuronidation (dog liver microsomes; in the presence of both UDPGA and NADPH)	glucuronidation (dog liver microsomes; in the presence of only UDPGA)	affinity for adrenergic receptors (adrenergic receptors)	inhibitory activity on monoamine oxidase (monoamine oxidase)	affinity for histaminergic receptors (histaminergic receptors)
P, U, F	P, U, F	CN(C)CC(c1ccc(O)cc1)C1(O)CCCCC1 (stereo not shown) [O-DESMETHYLVENLAFAXINE, 1-[2-(dimethylamino)-1-(4-phenol)ethyl]-cyclohexanol]	6	7	3	0	7	0					
		COc1ccc(C(CN(C)C)C2(O)CCCCC2)cc1 (stereo not shown) [venlafaxine, 1-[2-(dimethylamino)-1-(4-methoxyphenyl)ethyl]cyclohexanol]							observed	not	virtually no affinity	no inhibitory activity	virtually no affinity
